Test results: patent US20190314197A1, “Topical Ocular Delivery Methods and Devices for Use in the Same” (Kedalion Therapeutics, Inc., priority 2018, published 2019)

Key:
Assay type in all cases: in vivo, human
[1] = Trial 2: intraocular pressure reduction (Goldmann applanation tonometry) in primary open angle glaucoma patients; settings: for average IOP decrease measured per patient: approximately 8 hours after dosing
Procedure: Trial 2 compared the efficacy (dose volume equivalence) of 0.005% w/v latanoprost for intraocular pressure reduction when delivered via AcuStream™ (pre-trial calibration volume=9.2 μl) versus the standard eye dropper for topical drug delivery (approximate volume=30 μl).
Patients included in Trial 2 have previously been diagnosed with primary open angle glaucoma on the basis of intraocular pressure and visual field testing, fundus examination or optical coherence tomography (OCT) data and are currently on prostaglandin analog medical therapy. Patients with corneal abnormalities that would interfere with accurate IOP measurements with applanation tonometry, use of an oral or topical ophthalmic steroids within the past 14 days from screening date, any active ocular surface or anterior segment disease, or progressive field loss during the past year were excluded from the study. Thirteen men and five women participated in the trial.
Recruited patients were taken off medical therapy for a period of 3-4 weeks prior to the study to allow drug “wash out”, thereby elevating their IOPs to pre-treatment levels which was confirmed by examination of the patients' chart history. Patients were randomly assigned as “test” (AcuStream™), or “control” (standard eye dropper). The mean age of the control group and test group were 61.0 years and 65.2 years, respectively.
The patients assigned to either the “test” or “control” group by means of a random numbers table in order to mitigate any potential cross-over effects that could confound data interpretation. An odd number dictated that the patient was in the test group, while even-numbered patients were in the control group.
After performing slit lamp examinations on each patient to verify eligibility and obtaining informed consent, intraocular pressure (IOP) was measured by a sole experienced examiner who was blind to the randomized conditions. A pre-calibrated Goldmann applanation tonometer coupled to a Haag-Streit 900 EQ slit lamp was used to conduct baseline IOP measurements. Once baseline IOP data were verified to be equivalent to pre-medical therapy levels (based on patient's treatment history), the patient then continued to the dosing stage of the study.
Latanoprost solution was administered by a sole ophthalmologist to both eyes of each patient, based on the pre-determined randomized condition.

[2] = Pupil diameter after self-administered pilocarpine micro-dose (presbyopia); settings: non-dosed fellow eye
Procedure: (§1) A 10 μl micro-dose of a 1% pilocarpine solution was self-administered using an electromagnetic actuated fluid delivery device, e.g., as described above, by three subjects to their own eye. The age range of the subjects was 52 years to 68 years, and all subjects were male. The pilocarpine micro-dose was self-administered by the subjects.
(§2) Baseline, pre-dose values of pupil diameter and near visual acuity in both eyes prior to dosing was measured for all subjects, and then following the baseline measurements, the subjects were dosed in only one eye (the eye with the poorer visual acuity) with the micro-dose pilocarpine solution. Approximately 45 to 60 minutes after dosing, pupil diameter and near visual acuity were again tested. Near visual acuity was measured using a Snellen card at a distance of 40 cm. A tabulation of results is given below in Table A.

[3] = Near visual acuity (Snellen card at 40 cm) after pilocarpine micro-dose (presbyopia); settings: dosed eye
Procedure: as §1, §2

| Compound | average IOP decrease measured per patient ([1]; AcuStream (test group)) | difference in IOP reduction between AcuStream and standard dropper groups ([1]; Wilcoxon Ranked Sum test, p=0.3447) | post-instillation IOP, single patient outlier ([1]; control group (standard dropper), OD, baseline IOP 30 mm Hg) | equivalence of 9.2 μl AcuStream dose volume to 30 μl standard eye drops, intraocular pressure reduction ([1]; human, in vivo) | average IOP decrease measured per patient ([1]; standard eye dropper (control group)) | miotic effect in non-dosed eye [2] | mean improvement in near visual acuity ([3]; all subjects) | # of lines change in visual acuity ([3]; mean of 3 subjects) |
| --- | --- | --- | --- | --- | --- | --- | --- | --- |
| CC(C)OC(=O)CCC/C=C\C[C@@H]1[C@@H](CC[C@@H](O)CCc2ccccc2)[C@H](O)C[C@@H]1O [latanoprost] | 5.0 mm Hg | no statistically significant differences | 17 mm Hg | pharmacodynamic equivalence | 4.3 mm Hg | – | – | – |
| CC[C@@H]1C(=O)OC[C@@H]1Cc1cncn1C [pilocarpine] | – | – | – | – | – | no miotic effect | 2 lines | 2 lines |
